Assay type in all cases: cell-based, Sprague-Dawley (SD) rats
One assay concerns Bad. Description: Real-time RT-PCR of Bad mRNA in IM-treated NSCs. The conditions noted are these: Day 3, Day 5, and Day 7 of IM-treated NSCs. The procedure:
(§1) All animals used were treated in accordance with the Animal Care and Use Committee guideline at Taipei Veterans General Hospital. The protocol of the present study was also approved by the committee. Adult Sprague-Dawley (SD) rats (8 weeks old, 250 g) were anesthetized with intraperitoneal phenobarbital (Sigma, USA), and the location of their brains was mapped. Then, the brain […]. In brief, tissues from the hippocampus of adult rats were dissociated and incubated in Hank's balanced salt solution (HBSS) containing collagenase (78 units/ml) and hyaluronidase (38 units/ml) for 10 minutes at 37°C. The tissues were then mechanically dissected and placed in a trypsin solution (1.33 mg/ml) at 37°C for another 10 minutes. Dissociated cells were then centrifuged at 150 GG for 5 minutes. […] Viable cells were counted by trypan blue exclusion and plated as 5000 cells/200 µL per well in 96-well plates (Coming Inc, Acton, MA, USA) with no substrate pretreatment. […]
For real-time RT-PCR, the total RNA was extracted using the RNAeasy kit (Qiagen, Valencia, CA, USA). […] The quantification in the unknown samples was performed with LightCycler Relative Quantification Software version 3.3 (Roche Molecular Systems, Alameda, CA, USA). […]
(Real-time PCR tracks product formation cycle by cycle.)

The subject of a further assay is NSCs. Put plainly: MTT cell viability assay of IM-treated NSCs. The following applies: 3 µM IM, Day 3, Day 5 and Day 7 cultures, p<0.05. The method, then:
as §1, with “37°C.” for “37°C. The tissues were then mechanically dissected and placed in a trypsin solution (1.33 mg/ml) at 37°C for another 10 minutes. Dissociated cells were then centrifuged at 150 GG for 5 minutes.”
IM was purchased from Sigma Chem. Co., St Louis, MO, USA. […] The amount of MTT fromazon product was determined using a microplate reader and the absorbance was measured at 560 nm (SpectraMax 250, Molecular Devices, Sunnyvale, CA, USA). […] The activities of caspases 8 and 3 (Medical and Biological Laboratories Co., Ltd., Nagoya, Japan), and the concentration of IL-6, IL-1 and TNF-α (Pharmingen, San Diego, CA, USA) were determined by ELISA kits and quantified by reading at 490 nm (MRX; Dynatech Laboratories, Chantilly, VA, USA). Each individual sample was analyzed in triplicate.
(Tetrazolium dyes change colour on reduction, which living cells bring about.)

The next assay relates to Bcl-2 protein. Description: Bcl-2 protein expression in NSCs by western blot and immunohistochemistry. (In general: A western blot detects proteins with antibodies after separation by electrophoresis.)

Experimental findings from EP2077092A2, “System and Methods for Screening or Analyzing Targets” (Taipei Veterans General Hospital, priority 2007, dated 2009) are described below.

Turning to `CN(C)CCCN1c2ccccc2CCc2ccccc21` [IM, imipramine], the “expression of Bad” value in the assay on Bad is “not activated”. In addition, in the assay with NSCs, the “cell survival (MTT assay)” value was “significantly increased”. In addition, the “protein expression level of Bcl-2 in LPS-treated NSCs” value in the assay on Bcl-2 protein (3 µM IM vs 1, 2 µM IM-LPS-treated, only LPS-treated and control groups) was “significantly increased”. In addition, the “protein levels of Bcl-2 (western blot)” value in the assay with Bcl-2 protein (Day 3 IM-treated NSCs vs Day 3 non-IM-treated NSCs, p<0.05) is “higher”. Besides, the “expression levels of the Bcl-2 protein (western blot)” value in the assay on Bcl-2 protein (Day 7 IM-treated NSCs vs Day 3 or Day 5 IM-treated NSCs, p<0.05) is given as “significantly increased”. Further, the “protein expression of Bcl-2 (immunohistochemistry)” value with Bcl-2 protein (Day 7 IM-treated NSCs vs NSCs without the IM treatment) is given as “significantly increased”. Moreover, the “Bcl-2 expression in NSCs” value in the assay on Bcl-2 protein (treatment with IM only or BDNF only) is recorded as “can activate Bcl-2 expression”.
